Assay results reported in PubChem BioAssay (NCI).
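All cell lines were grown in 96-well plates and treated with compound for 48 hours. Abbreviation: GI50, concentration required for 50% inhibition of growth. TGI marks complete inhibition of growth.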

Columns and labels:
Test in all cases: NCI tumour cell line growth inhibition, 48 h
EKVX NSCLC = test system: EKVX NSCLC
OVCAR-8 ovarian = test system: OVCAR-8 ovarian
HCT-15 colon = test system: HCT-15 colon
K-562 leukemia = test system: K-562 leukemia
SK-OV-3 ovarian = test system: SK-OV-3 ovarian
TK-10 renal = test system: TK-10 renal
SF-295 CNS = test system: SF-295 CNS
COLO 205 colon = test system: COLO 205 colon
UACC-62 melanoma = test system: UACC-62 melanoma
RXF 393 renal = test system: RXF 393 renal
LOX IMVI melanoma = test system: LOX IMVI melanoma
SF-268 CNS = test system: SF-268 CNS
HOP-92 NSCLC = test system: HOP-92 NSCLC
NCI-H23 lung = test system: NCI-H23 lung
SK-MEL-2 melanoma = test system: SK-MEL-2 melanoma
M14 melanoma = test system: M14 melanoma
NCI/ADR-RES ovarian = test system: NCI/ADR-RES ovarian
786-0 renal = test system: 786-0 renal
UACC-257 melanoma = test system: UACC-257 melanoma
HL-60(TB) leukemia = test system: HL-60(TB) leukemia
MDA-MB-435 = test system: MDA-MB-435
CAKI-1 renal = test system: CAKI-1 renal
SNB-75 CNS = test system: SNB-75 CNS
OVCAR-5 ovarian = test system: OVCAR-5 ovarian
HS 578T breast = test system: HS 578T breast
HCC-2998 colon = test system: HCC-2998 colon
MCF7 breast = test system: MCF7 breast
NCI-H460 lung = test system: NCI-H460 lung
HT29 colon = test system: HT29 colon
CCRF-CEM leukemia = test system: CCRF-CEM leukemia
UO-31 renal = test system: UO-31 renal
IGROV1 ovarian = test system: IGROV1 ovarian
A549 NSCLC = test system: A549 NSCLC
NCI-H522 lung = test system: NCI-H522 lung
SK-MEL-5 melanoma = test system: SK-MEL-5 melanoma
OVCAR-3 ovarian = test system: OVCAR-3 ovarian
KM12 colon = test system: KM12 colon
HOP-62 NSCLC = test system: HOP-62 NSCLC
MALME-3M melanoma = test system: MALME-3M melanoma
SNB-19 CNS = test system: SNB-19 CNS
DU-145 prostate = test system: DU-145 prostate
SN12C renal = test system: SN12C renal
MOLT-4 leukemia = test system: MOLT-4 leukemia
PC-3 prostate = test system: PC-3 prostate
ACHN renal = test system: ACHN renal
U251 CNS = test system: U251 CNS
OVCAR-4 ovarian = test system: OVCAR-4 ovarian
SK-MEL-28 melanoma = test system: SK-MEL-28 melanoma
RPMI-8226 leukemia = test system: RPMI-8226 leukemia
A498 renal = test system: A498 renal
T-47D breast = test system: T-47D breast
MDA-MB-231 breast = test system: MDA-MB-231 breast
SW-620 colon = test system: SW-620 colon
NCI-H226 lung = test system: NCI-H226 lung
SF-539 CNS = test system: SF-539 CNS
BT-549 breast = test system: BT-549 breast

**Q.** How did the GI50 (EKVX NSCLC) turn out when `Clc1nc(Cl)c2ncn(Cc3ccc(COc4cccc(OCc5ccc(Cn6cnc7c(Cl)nc(Cl)nc76)cc5)c4)cc3)c2n1` was run?
**A.** 91.4 µM

**Q.** What about the TGI (EKVX NSCLC) of the same compound?
**A.** > 100 µM

**Q.** What about the GI50 (OVCAR-8 ovarian) of the same compound?
**A.** 33.6 µM

**Q.** And the TGI (OVCAR-8 ovarian)?
**A.** > 100 µM

**Q.** What about the GI50 (HCT-15 colon) of the same compound?
**A.** 28.8 µM

**Q.** And the TGI (HCT-15 colon)?
**A.** > 100 µM

**Q.** And the GI50 (K-562 leukemia)?
**A.** 25.9 µM

**Q.** And the TGI (K-562 leukemia)?
**A.** > 100 µM

**Q.** What about the GI50 (SK-OV-3 ovarian) of the same compound?
**A.** > 100 µM

**Q.** And the TGI (SK-OV-3 ovarian)?
**A.** > 100 µM

**Q.** What about the GI50 (TK-10 renal) of the same compound?
**A.** 27 µM

**Q.** What about the TGI (TK-10 renal) of the same compound?
**A.** > 100 µM

**Q.** And the GI50 (SF-295 CNS)?
**A.** 98.4 µM

**Q.** And the TGI (SF-295 CNS)?
**A.** > 100 µM

**Q.** And the GI50 (COLO 205 colon)?
**A.** > 100 µM

**Q.** And the TGI (COLO 205 colon)?
**A.** > 100 µM

**Q.** What about the GI50 (UACC-62 melanoma) of the same compound?
**A.** 34.7 µM

**Q.** And the TGI (UACC-62 melanoma)?
**A.** > 100 µM

**Q.** And the GI50 (RXF 393 renal)?
**A.** > 100 µM

**Q.** And the TGI (RXF 393 renal)?
**A.** > 100 µM

**Q.** And the GI50 (LOX IMVI melanoma)?
**A.** 2.47 µM

**Q.** And the TGI (LOX IMVI melanoma)?
**A.** 12.7 µM

**Q.** What about the GI50 (SF-268 CNS) of the same compound?
**A.** > 100 µM

**Q.** What about the TGI (SF-268 CNS) of the same compound?
**A.** > 100 µM

**Q.** What about the GI50 (HOP-92 NSCLC) of the same compound?
**A.** 36.2 µM

**Q.** And the TGI (HOP-92 NSCLC)?
**A.** > 100 µM

**Q.** And the GI50 (NCI-H23 lung)?
**A.** 71.4 µM

**Q.** And the TGI (NCI-H23 lung)?
**A.** > 100 µM

**Q.** What about the GI50 (SK-MEL-2 melanoma) of the same compound?
**A.** 28.2 µM

**Q.** What about the TGI (SK-MEL-2 melanoma) of the same compound?
**A.** > 100 µM

**Q.** And the GI50 (M14 melanoma)?
**A.** 21.9 µM

**Q.** What about the TGI (M14 melanoma) of the same compound?
**A.** 85.9 µM

**Q.** What about the GI50 (NCI/ADR-RES ovarian) of the same compound?
**A.** 39.5 µM

**Q.** And the TGI (NCI/ADR-RES ovarian)?
**A.** > 100 µM

**Q.** And the GI50 (786-0 renal)?
**A.** 36.2 µM

**Q.** What about the TGI (786-0 renal) of the same compound?
**A.** > 100 µM

**Q.** What about the GI50 (UACC-257 melanoma) of the same compound?
**A.** 24.9 µM

**Q.** What about the TGI (UACC-257 melanoma) of the same compound?
**A.** > 100 µM

**Q.** What about the GI50 (HL-60(TB) leukemia) of the same compound?
**A.** 13.5 µM

**Q.** What about the TGI (HL-60(TB) leukemia) of the same compound?
**A.** 34.3 µM

**Q.** What about the GI50 (MDA-MB-435) of the same compound?
**A.** 26.7 µM

**Q.** And the TGI (MDA-MB-435)?
**A.** > 100 µM

**Q.** And the GI50 (CAKI-1 renal)?
**A.** > 100 µM

**Q.** And the TGI (CAKI-1 renal)?
**A.** > 100 µM

**Q.** And the GI50 (SNB-75 CNS)?
**A.** 8.39 µM

**Q.** And the TGI (SNB-75 CNS)?
**A.** > 100 µM

**Q.** What about the GI50 (OVCAR-5 ovarian) of the same compound?
**A.** 49.8 µM

**Q.** And the TGI (OVCAR-5 ovarian)?
**A.** > 100 µM

**Q.** What about the GI50 (HS 578T breast) of the same compound?
**A.** 54.1 µM

**Q.** And the TGI (HS 578T breast)?
**A.** > 100 µM

**Q.** And the GI50 (HCC-2998 colon)?
**A.** 17.9 µM

**Q.** What about the TGI (HCC-2998 colon) of the same compound?
**A.** 35.8 µM

**Q.** What about the GI50 (MCF7 breast) of the same compound?
**A.** 28.9 µM

**Q.** And the TGI (MCF7 breast)?
**A.** > 100 µM

**Q.** What about the GI50 (NCI-H460 lung) of the same compound?
**A.** > 100 µM

**Q.** What about the TGI (NCI-H460 lung) of the same compound?
**A.** > 100 µM

**Q.** And the GI50 (HT29 colon)?
**A.** > 100 µM

**Q.** What about the TGI (HT29 colon) of the same compound?
**A.** > 100 µM

**Q.** What about the GI50 (CCRF-CEM leukemia) of the same compound?
**A.** 17.2 µM

**Q.** And the TGI (CCRF-CEM leukemia)?
**A.** > 100 µM

**Q.** And the GI50 (UO-31 renal)?
**A.** 51.5 µM

**Q.** And the TGI (UO-31 renal)?
**A.** > 100 µM

**Q.** What about the GI50 (IGROV1 ovarian) of the same compound?
**A.** 69.4 µM

**Q.** And the TGI (IGROV1 ovarian)?
**A.** > 100 µM

**Q.** And the GI50 (A549 NSCLC)?
**A.** > 100 µM

**Q.** And the TGI (A549 NSCLC)?
**A.** > 100 µM

**Q.** What about the GI50 (NCI-H522 lung) of the same compound?
**A.** 61.9 µM

**Q.** And the TGI (NCI-H522 lung)?
**A.** > 100 µM

**Q.** And the GI50 (SK-MEL-5 melanoma)?
**A.** 14.3 µM

**Q.** And the TGI (SK-MEL-5 melanoma)?
**A.** 95.5 µM

**Q.** What about the GI50 (OVCAR-3 ovarian) of the same compound?
**A.** 10.7 µM

**Q.** And the TGI (OVCAR-3 ovarian)?
**A.** 56.6 µM

**Q.** What about the GI50 (KM12 colon) of the same compound?
**A.** 58.2 µM

**Q.** And the TGI (KM12 colon)?
**A.** > 100 µM

**Q.** What about the GI50 (HOP-62 NSCLC) of the same compound?
**A.** 63.4 µM

**Q.** What about the TGI (HOP-62 NSCLC) of the same compound?
**A.** > 100 µM

**Q.** What about the GI50 (MALME-3M melanoma) of the same compound?
**A.** 73.1 µM

**Q.** And the TGI (MALME-3M melanoma)?
**A.** > 100 µM

**Q.** What about the GI50 (SNB-19 CNS) of the same compound?
**A.** > 100 µM

**Q.** What about the TGI (SNB-19 CNS) of the same compound?
**A.** > 100 µM

**Q.** And the GI50 (DU-145 prostate)?
**A.** 18.5 µM

**Q.** And the TGI (DU-145 prostate)?
**A.** 48.1 µM

**Q.** And the GI50 (SN12C renal)?
**A.** 92.4 µM

**Q.** And the TGI (SN12C renal)?
**A.** > 100 µM

**Q.** And the GI50 (MOLT-4 leukemia)?
**A.** 8.6 µM

**Q.** What about the TGI (MOLT-4 leukemia) of the same compound?
**A.** > 100 µM

**Q.** And the GI50 (PC-3 prostate)?
**A.** 24.1 µM

**Q.** And the TGI (PC-3 prostate)?
**A.** > 100 µM

**Q.** And the GI50 (ACHN renal)?
**A.** 45.4 µM

**Q.** What about the TGI (ACHN renal) of the same compound?
**A.** > 100 µM

**Q.** What about the GI50 (U251 CNS) of the same compound?
**A.** 19.8 µM

**Q.** What about the TGI (U251 CNS) of the same compound?
**A.** > 100 µM

**Q.** And the GI50 (OVCAR-4 ovarian)?
**A.** 15.1 µM

**Q.** And the TGI (OVCAR-4 ovarian)?
**A.** > 100 µM

**Q.** What about the GI50 (SK-MEL-28 melanoma) of the same compound?
**A.** 52.8 µM

**Q.** And the TGI (SK-MEL-28 melanoma)?
**A.** > 100 µM

**Q.** What about the GI50 (RPMI-8226 leukemia) of the same compound?
**A.** 9.5 µM

**Q.** And the TGI (RPMI-8226 leukemia)?
**A.** > 100 µM

**Q.** What about the GI50 (A498 renal) of the same compound?
**A.** 39.2 µM

**Q.** What about the TGI (A498 renal) of the same compound?
**A.** > 100 µM

**Q.** What about the GI50 (T-47D breast) of the same compound?
**A.** 21.5 µM

**Q.** And the TGI (T-47D breast)?
**A.** > 100 µM

**Q.** And the GI50 (MDA-MB-231 breast)?
**A.** 17.4 µM

**Q.** What about the TGI (MDA-MB-231 breast) of the same compound?
**A.** 53.2 µM

**Q.** And the GI50 (SW-620 colon)?
**A.** > 100 µM

**Q.** And the TGI (SW-620 colon)?
**A.** > 100 µM

**Q.** And the GI50 (NCI-H226 lung)?
**A.** 21 µM

**Q.** And the TGI (NCI-H226 lung)?
**A.** 60.3 µM

**Q.** What about the GI50 (SF-539 CNS) of the same compound?
**A.** > 100 µM

**Q.** What about the TGI (SF-539 CNS) of the same compound?
**A.** > 100 µM

**Q.** And the GI50 (BT-549 breast)?
**A.** 25.6 µM

**Q.** And the TGI (BT-549 breast)?
**A.** > 100 µM
